2 substances from patent publication US4032633A, “Polypeptides” (Imperial Chemical Industries Limited, priority 1974, dated 1977) can be followed below.

In the assay the test system is secretion of acidic gastric juice stimulated with histamine. The experiment in a line: Inhibition of histamine-stimulated secretion of acidic gastric juice in dogs with a Heidenhain pouch, single intravenous injection. It counts as in vivo, dog. The note with it: column fractions or products assayed in histamine-stimulated pouch dogs. The protocol: This test is used to determine the biological potency of the products, which is defined as the amount of the product expressed in μg./kg. which, on administration by intravenous injection to a dog provided with a Heidenhain pouch and whose secretion of gastric acid is stimulated to 60-89% of the maximum level of secretion by an infusion of histamine, causes a 50-70% inhibition of that acid secretion. Some variation in the biological potency of a particular sample is found if it is measured in different dogs and on different occasions, and so the result is best expressed as a dose range. The physiological effect of inhibiting the secretion of acidic gastric juice is of value in the treatment of duodenal ulcers, and under the test conditions, no serious toxic effects were observed. The polypeptides also show ulcer healing properties in a standard test. […]
Dogs were prepared with separated denervated fundic pouches, and a subcutaneous infusion of histamine was used to stimulate gastric secretion to approximately 60-80% of the maximal rate [usually an infusion of a solution of 600 μg. of histamine (expressed as base) in 0.48 ml. per hour was adequate]. […]
The specific activity may be determined from the results obtained for several different doses.

Regarding “material in fractions 38-52: hexapeptide liberated from β-urogastrone: Glu 1, Leu 1, Lys 1, Trp 2, Arg 1, lysine at the N-terminus (KWWELR; Epidermal growth factor; UniProt P01133 1018-1023, looked up, fragment)”, the “biological activity (inhibition of gastric secretion), in words” value is “biologically inactive”.

Turning to “material in fractions 49-65: pentapeptide liberated from γ-urogastrone: Glu 1, Leu 1, Lys 1, Trp 2, lysine at the N-terminus (KWWEL; Epidermal growth factor; UniProt P01133 1018-1022, looked up, fragment)”, the “biological activity (inhibition of gastric secretion), in words” value is “biologically inactive”.
